Residues, ends and D or L forms follow the SMILES beside them. *: point of attachment. N4 = 6-(carboxy)-1,4,8,11-tetraazaundecane chelator, NCCNCC(CNCCN)C(=O)*; Butanoyl(4-(4-MePh)) = Cc1ccc(CCCC(=O)*)cc1; X1 = NCCNCC(CNCCN)C(=O)*
Experiments:
human NTS1R = target: T1, human NTS1R (Homo sapiens, UniProt P30989); test: Competition binding against [125I]I-Tyr3-NT in WiDr cell membrane homogenates; settings: WiDr cell membranes, 1 h at 22 °C, mean ± sd; read-out: IC50, [125I]I-Tyr3-NT displacement from NTS1R binding sites
T1 construct: freshly prepared membrane homogenates of human colon adenocarcinoma WiDr cells; endogenous in cells; host or cells: WiDr human colon adenocarcinoma cells (membrane homogenates)
Protocol: Aliquots of the cell membrane homogenates from WiDr cells (collected and stored at −80 °C in Tris/EDTA:10 mM of Tris, 0.1 mM of EDTA, pH 7.4) were thawed, combined and diluted in cold BB. In RIA tubes in triplicate, the test peptide (30 µL) of each concentration point, radioligand (70 µL) and membrane homogenate (200 µL) were consecutively added and thoroughly vortexed. Samples were placed for 1 h in the Incubator-Orbital Shaker (MPM Instr. Srl; Bernareggio, Italy) at 22 °C under constant steering. […] The samples were aspirated, and individual filters corresponding to each tube were collected in separate plastic tubes and measured for radioactivity on the γ-counter. Inhibition curves were plotted and the half maximal inhibitory concentration (IC50) values were calculated by applying a nonlinear one-site model (GraphPad Prism—6 Software, San Diego, CA, USA). The results for each compound are given as the average IC50 values ± sd of at least three independent repetitions of the experiment performed in triplicate.

AsPC-1 cells = test: Time-dependent radioligand internalization in AsPC-1 cells; format: cell-based, human; settings: 37 °C, at 1 h, non-specific (1 μM NT) subtracted
Protocol: The time-dependent internalization of [^99mTc]Tc-DT10/11/12 was directly compared with [^99mTc]Tc-DT1 via incubation in AsPC-1 cells at 37 °C for 15 min, 30 min, 1 h and 2 h. The cells were seeded in 6-well plates (1 × 10^6 per well) and left in the incubator overnight. The next day, the cells were washed twice with ice-cold internalization medium (IM, RPMI supplemented with 1% FBS). The plates were placed on the bench and the following solutions were successively added per well: warm IM (1200 µL at 37 °C), radioligand (250 fmol in 150 µL of IM) and either IM (150 µL; 3 upper wells: total series) or NT (10^−5 M in IM, 3 bottom wells: non-specific series). The plates were placed in the incubator at 37 °C and, at the predetermined time points, were retrieved and placed on ice. […] The three fractions collected per well in separate RIA tubes (supernatant, MB and internalized) were measured for their radioactivity content on the γ-counter. The radioactivity of each fraction was then assessed as a percentage of the initial activity added per well. By subtracting the non-specific fractions from the respective total fractions, the specific MB and internalization fractions could be determined. […] The results were expressed as mean ± sd.

albumin = albumin (Bos taurus, UniProt P02769); format: in vitro ADME, bovine
Protocol: The binding of the new [^99mTc]Tc-DT10/11/12 and the [^99mTc]Tc-DT1 reference to albumin was compared via the incubation of radioligands in BSA-treated 6-well plates. Accordingly, HEPES-buffered saline (150 mM of NaCl, 20 mM of HEPES, pH 7.4) supplemented with 0.5% w/v BSA (1200 µL of HBS-BSA) was added to each well, followed by the radioligand (250 fmol peptide, in 150 µL of HBS) and either HBS-BSA (150 µL, total binding) or Ibuprofen (22.2 mg/mL in HBS, 150 µL), to reach a total final volume of 1.5 mL. The plates were incubated in triplicate at 37 °C for 30 min in the incubator. Next, the supernatants were discarded and the wells were treated with 1 M NaOH (2 × 600 µL). The lysates were combined and collected in RIA tubes for radioactivity measurement on the γ-counter. Binding to albumin was calculated as a percentage of the measured activity vs. the activity originally added per well. The experiments were performed at least three times in triplicate and the results represent the average binding to albumin ± sd.

T1 sequence (P30989 whole entry): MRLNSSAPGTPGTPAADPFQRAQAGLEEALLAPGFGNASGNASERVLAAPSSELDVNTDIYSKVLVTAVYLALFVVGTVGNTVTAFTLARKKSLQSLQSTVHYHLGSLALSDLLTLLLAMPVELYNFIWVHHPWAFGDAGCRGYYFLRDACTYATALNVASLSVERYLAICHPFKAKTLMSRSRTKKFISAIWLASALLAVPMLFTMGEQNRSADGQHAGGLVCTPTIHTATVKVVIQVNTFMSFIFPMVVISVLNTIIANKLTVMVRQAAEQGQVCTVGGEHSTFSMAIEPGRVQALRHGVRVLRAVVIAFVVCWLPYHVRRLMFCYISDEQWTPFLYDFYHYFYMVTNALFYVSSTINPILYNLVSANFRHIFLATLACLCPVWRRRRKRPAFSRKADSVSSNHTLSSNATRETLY
albumin, sequence (P02769 25-607): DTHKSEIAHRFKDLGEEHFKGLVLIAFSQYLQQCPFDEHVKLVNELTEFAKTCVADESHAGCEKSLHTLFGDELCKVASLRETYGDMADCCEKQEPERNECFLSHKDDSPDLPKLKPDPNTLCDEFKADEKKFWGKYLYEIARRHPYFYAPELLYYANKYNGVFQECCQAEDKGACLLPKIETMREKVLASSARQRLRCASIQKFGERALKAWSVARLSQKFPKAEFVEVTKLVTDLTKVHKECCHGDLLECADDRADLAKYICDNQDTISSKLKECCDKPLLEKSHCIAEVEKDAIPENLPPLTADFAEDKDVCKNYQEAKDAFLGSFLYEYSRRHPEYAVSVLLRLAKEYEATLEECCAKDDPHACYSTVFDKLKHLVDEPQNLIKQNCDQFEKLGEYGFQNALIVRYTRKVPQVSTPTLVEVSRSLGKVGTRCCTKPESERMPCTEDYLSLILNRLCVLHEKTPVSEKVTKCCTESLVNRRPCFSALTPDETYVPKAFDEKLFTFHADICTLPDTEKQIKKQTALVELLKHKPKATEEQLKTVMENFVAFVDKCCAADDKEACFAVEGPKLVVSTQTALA

Row | Molecule | IC50 (human NTS1R) | specific internalization (AsPC-1 cells) | binding to albumin (albumin)
1 | CC[C@H](C)[C@H](NC(=O)[C@H](Cc1ccc(O)cc1)NC(=O)[C@@H]1CCCN1C(=O)[C@H](CCCNC(=N)N)NC(=O)[C@H](CCCNC(=N)N)NC(=O)CNC(=O)C(CNCCN)CNCCN)C(=O)N[C@@H](CC(C)C)C(=O)O [DT1, N4-Gly-Arg-Arg-Pro-Tyr-Ile-Leu-OH] (X1-GRRPYIL-OH) | 0.14 ± 0.01 nM |  | 
2 | CC[C@H](C)[C@H](NC(=O)[C@H](Cc1ccc(O)cc1)NC(=O)[C@@H]1CCCN1C(=O)[C@H](CCCNC(=N)N)NC(=O)[C@H](CCCNC(=N)N)NC(=O)[C@H](CCCCNC(=O)CCCc1ccc(C)cc1)NC(=O)C(CNCCN)CNCCN)C(=O)N[C@@H](CC(C)C)C(=O)O [DT10] (X1-K(Butanoyl(4-(4-MePh)))RRPYIL-OH) | 0.06 ± 0.03 nM |  | 
3 | [^99mTc]Tc-DT1: Tc-99m labeled DT1 (N4-Gly-Arg-Arg-Pro-Tyr-Ile-Leu-OH), unmodified reference radioligand (N4-GRRPYIL-OH; also: 99mTc complexed by N4 chelator) |  | 15.1 ± 2.3% | < 1.0%

Reference: PMC10647616, “Side-Chain Modified [^99mTc]Tc-DT1 Mimics: A Comparative Study in NTS1R-Positive Models” (International Journal of Molecular Sciences, 2023)
